Measured values: PubChem BioAssay AID1963981 (Molecular Pharmacology Branch, DTP, NCI, 2024)

Tested on: 354836-022-R-J1-PDC multicell spheroid viability
Assay: Anticancer human tumor 354836-022-R-J1-PDC patient-derived head and neck squamous cell carcinoma cell line growth inhibition [PI3K]
Conditions: for IC50: curve of first compound; for viability, T/C: stronger effect = lower value; active means viability on the fitted dose curve at most 10% of control; inactive means the rest
Summary of the method: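 Targeted small molecules plus PI3K inhibitors, half-log dose series from Cmax (default top 10 microM), were applied to heterotypic spheroids of cancer cells with HUVEC and MSCs. Viability indicated growth inhibition.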

[1] = second compound 0.00316 µM, first compound 0.0316 µM
[2] = second compound 0.00316 µM, first compound 0.1 µM
[3] = second compound 0.00316 µM, first compound 0.316 µM
[4] = second compound 0.00316 µM, first compound 1 µM
[5] = second compound 0.00316 µM, first compound 3.16 µM
[6] = second compound 0.00316 µM, first compound 10 µM
[7] = second compound 0.01 µM, first compound 0.0316 µM
[8] = second compound 0.01 µM, first compound 0.1 µM
[9] = second compound 0.01 µM, first compound 0.316 µM
[10] = second compound 0.01 µM, first compound 1 µM
[11] = second compound 0.01 µM, first compound 3.16 µM
[12] = second compound 0.01 µM, first compound 10 µM
[13] = second compound 0.0316 µM, first compound 0.0316 µM
[14] = second compound 0.0316 µM, first compound 0.1 µM
[15] = second compound 0.0316 µM, first compound 0.316 µM
[16] = second compound 0.0316 µM, first compound 1 µM
[17] = second compound 0.0316 µM, first compound 3.16 µM
[18] = second compound 0.0316 µM, first compound 10 µM
[19] = second compound 0.1 µM, first compound 0.0316 µM
[20] = second compound 0.1 µM, first compound 0.1 µM
[21] = second compound 0.1 µM, first compound 0.316 µM
[22] = second compound 0.1 µM, first compound 1 µM
[23] = second compound 0.1 µM, first compound 3.16 µM
[24] = second compound 0.1 µM, first compound 10 µM
[25] = second compound 0.316 µM, first compound 0.0316 µM
[26] = second compound 0.316 µM, first compound 0.1 µM
[27] = second compound 0.316 µM, first compound 0.316 µM
[28] = second compound 0.316 µM, first compound 1 µM
[29] = second compound 0.316 µM, first compound 3.16 µM
[30] = second compound 0.316 µM, first compound 10 µM
[31] = second compound 1 µM, first compound 0.0316 µM
[32] = second compound 1 µM, first compound 0.1 µM
[33] = second compound 1 µM, first compound 0.316 µM
[34] = second compound 1 µM, first compound 1 µM
[35] = second compound 1 µM, first compound 3.16 µM
[36] = second compound 1 µM, first compound 10 µM
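Further: spheroids exposed to agents for seven days before the viability read.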

C=CC(=O)N1CCN(c2nc(=O)n(-c3c(C)ccnc3C(C)C)c3nc(-c4c(O)cccc4F)c(F)cc23)C(C)C1 (stereo not drawn) + CC(Nc1ccc2c(c1)OCCn1cc(N3C(=O)OCC3C(F)F)nc1-2)C(N)=O
inactive: viability, T/C [1] 100% | viability, T/C [2] 81.7% | viability, T/C [3] 98.7% | viability, T/C [4] 94.5% | viability, T/C [5] 106% | viability, T/C [6] 113% | viability, T/C [7] 101% | viability, T/C [8] 91.8% | viability, T/C [9] 93.1% | viability, T/C [10] 95.3% | viability, T/C [11] 103% | viability, T/C [12] 91% | viability, T/C [13] 95.7% | viability, T/C [14] 112% | viability, T/C [15] 86.9% | viability, T/C [16] 111% | viability, T/C [17] 115% | viability, T/C [18] 92.2% | viability, T/C [19] 77.9% | viability, T/C [20] 94.3% | viability, T/C [21] 95.2% | viability, T/C [22] 124% | viability, T/C [23] 88.5% | viability, T/C [24] 89.7% | viability, T/C [25] 68.2% | viability, T/C [26] 75.9% | viability, T/C [27] 81.5% | viability, T/C [28] 68.1% | viability, T/C [29] 87.7% | viability, T/C [30] 70.6% | viability, T/C [31] 63.9% | viability, T/C [32] 63.2% | viability, T/C [33] 65.1% | viability, T/C [34] 74% | viability, T/C [35] 68.3% | viability, T/C [36] 55.6%
> 10000 nM: IC50 (second compound 0.00316 µM) | IC50 (second compound 0.01 µM) | IC50 (second compound 0.0316 µM) | IC50 (second compound 0.1 µM) | IC50 (second compound 0.316 µM) | IC50 (second compound 1 µM)

CCN1CCN(Cc2ccc(Nc3ncc(F)c(-c4cc(F)c5nc(C)n(C(C)C)c5c4)n3)nc2)CC1 + CC(Nc1ccc2c(c1)OCCn1cc(N3C(=O)OCC3C(F)F)nc1-2)C(N)=O
713 nM: IC50 (second compound 0.1 µM)
inactive: viability, T/C (second compound 0.00316 µM, first compound 0.00316 µM) 99.9% | viability, T/C (second compound 0.00316 µM, first compound 0.01 µM) 99.6% | viability, T/C [1] 93.1% | viability, T/C [2] 105% | viability, T/C [3] 104% | viability, T/C [4] 67.5% | viability, T/C (second compound 0.01 µM, first compound 0.00316 µM) 100% | viability, T/C (second compound 0.01 µM, first compound 0.01 µM) 97.8% | viability, T/C [7] 116% | viability, T/C [8] 85% | viability, T/C [9] 89.2% | viability, T/C [10] 69.6% | viability, T/C (second compound 0.0316 µM, first compound 0.00316 µM) 95.8% | viability, T/C (second compound 0.0316 µM, first compound 0.01 µM) 80.7% | viability, T/C [13] 84.7% | viability, T/C [14] 101% | viability, T/C [15] 85.7% | viability, T/C [16] 57.5% | viability, T/C (second compound 0.1 µM, first compound 0.00316 µM) 89.2% | viability, T/C (second compound 0.1 µM, first compound 0.01 µM) 82.9% | viability, T/C [19] 75.6% | viability, T/C [20] 94.1% | viability, T/C [21] 75.9% | viability, T/C [22] 39.2% | viability, T/C (second compound 0.316 µM, first compound 0.00316 µM) 65% | viability, T/C (second compound 0.316 µM, first compound 0.01 µM) 79.3% | viability, T/C [25] 67.5% | viability, T/C [26] 62.1% | viability, T/C [27] 61.5% | viability, T/C [28] 22.9% | viability, T/C (second compound 1 µM, first compound 0.00316 µM) 64% | viability, T/C (second compound 1 µM, first compound 0.01 µM) 54.1% | viability, T/C [31] 67.6% | viability, T/C [32] 47.5% | viability, T/C [33] 46.4% | viability, T/C [34] 14.2%
> 1000 nM: IC50 (second compound 0.00316 µM) | IC50 (second compound 0.01 µM) | IC50 (second compound 0.0316 µM)
162 nM: IC50 (second compound 1 µM)
425 nM: IC50 (second compound 0.316 µM)

Cn1ncc(Cl)c1-c1cc(C(=O)NC(CN)Cc2cccc(F)c2)sc1Cl (stereo not drawn) + CC(Nc1ccc2c(c1)OCCn1cc(N3C(=O)OCC3C(F)F)nc1-2)C(N)=O
active: viability, T/C [6] 5.31% | viability, T/C [12] 5.41% | viability, T/C [18] 3.21% | viability, T/C [24] 4.25% | viability, T/C [30] 5.46% | viability, T/C [36] 4.09%
85.2 nM: IC50 (second compound 0.00316 µM)
37.2 nM: IC50 (second compound 1 µM)
92.9 nM: IC50 (second compound 0.316 µM)
129 nM: IC50 (second compound 0.1 µM)
105 nM: IC50 (second compound 0.0316 µM)
92.4 nM: IC50 (second compound 0.01 µM)
inactive: viability, T/C [1] 64.3% | viability, T/C [2] 48.1% | viability, T/C [3] 33.3% | viability, T/C [4] 20.1% | viability, T/C [5] 19.9% | viability, T/C [7] 75.2% | viability, T/C [8] 47.5% | viability, T/C [9] 30.2% | viability, T/C [10] 18.9% | viability, T/C [11] 18.3% | viability, T/C [13] 66.6% | viability, T/C [14] 56.4% | viability, T/C [15] 27.3% | viability, T/C [16] 23.9% | viability, T/C [17] 16.9% | viability, T/C [19] 83.1% | viability, T/C [20] 56% | viability, T/C [21] 29.9% | viability, T/C [22] 24.2% | viability, T/C [23] 15.9% | viability, T/C [25] 71% | viability, T/C [26] 48.8% | viability, T/C [27] 30.7% | viability, T/C [28] 20.5% | viability, T/C [29] 12.9% | viability, T/C [31] 50.6% | viability, T/C [32] 45.2% | viability, T/C [33] 32.2% | viability, T/C [34] 25% | viability, T/C [35] 13%

Cn1nccc1Nc1nccc(-c2ccn(C(CO)c3ccc(Cl)c(F)c3)c(=O)c2)n1 (stereo not drawn) + CC(Nc1ccc2c(c1)OCCn1cc(N3C(=O)OCC3C(F)F)nc1-2)C(N)=O
inactive: viability, T/C [1] 91.2% | viability, T/C [2] 86.8% | viability, T/C [3] 112% | viability, T/C [4] 92.6% | viability, T/C [5] 93.5% | viability, T/C [6] 88.1% | viability, T/C [7] 105% | viability, T/C [8] 92.5% | viability, T/C [9] 101% | viability, T/C [10] 95.1% | viability, T/C [11] 101% | viability, T/C [12] 88.5% | viability, T/C [13] 103% | viability, T/C [14] 92.4% | viability, T/C [15] 88.7% | viability, T/C [16] 88.6% | viability, T/C [17] 127% | viability, T/C [18] 98.2% | viability, T/C [19] 74.2% | viability, T/C [20] 100% | viability, T/C [21] 94.6% | viability, T/C [22] 88.7% | viability, T/C [23] 100% | viability, T/C [24] 98.4% | viability, T/C [25] 59.9% | viability, T/C [26] 73.3% | viability, T/C [27] 75.2% | viability, T/C [28] 72% | viability, T/C [29] 71.5% | viability, T/C [30] 71.8% | viability, T/C [31] 58.8% | viability, T/C [32] 50.1% | viability, T/C [33] 55.4% | viability, T/C [34] 62.4% | viability, T/C [35] 61.4% | viability, T/C [36] 41.4%
> 10000 nM: IC50 (second compound 0.00316 µM) | IC50 (second compound 0.01 µM) | IC50 (second compound 0.0316 µM) | IC50 (second compound 0.1 µM) | IC50 (second compound 0.316 µM) | IC50 (second compound 1 µM)
